From PubChem BioAssay (NCI)
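Interpolation was linear, between the two tested concentrations surrounding the appropriate level; five concentrations were tested over 48 hours in 96-well plates. TGI marks complete inhibition of growth.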

Legend:
Experiment in all cases: NCI tumour cell line growth inhibition, 48 h
786-0 renal = tested on: 786-0 renal
A498 renal = tested on: A498 renal
A549 NSCLC = tested on: A549 NSCLC
ACHN renal = tested on: ACHN renal
BT-549 breast = tested on: BT-549 breast
CAKI-1 renal = tested on: CAKI-1 renal
CCRF-CEM leukemia = tested on: CCRF-CEM leukemia
COLO 205 colon = tested on: COLO 205 colon
DU-145 prostate = tested on: DU-145 prostate
EKVX NSCLC = tested on: EKVX NSCLC
HCC-2998 colon = tested on: HCC-2998 colon
HCT-116 colon = tested on: HCT-116 colon
HCT-15 colon = tested on: HCT-15 colon
HL-60(TB) leukemia = tested on: HL-60(TB) leukemia
HS 578T breast = tested on: HS 578T breast
HT29 colon = tested on: HT29 colon
IGROV1 ovarian = tested on: IGROV1 ovarian
K-562 leukemia = tested on: K-562 leukemia
KM12 colon = tested on: KM12 colon
LOX IMVI melanoma = tested on: LOX IMVI melanoma
M14 melanoma = tested on: M14 melanoma
MALME-3M melanoma = tested on: MALME-3M melanoma
MDA-MB-231 breast = tested on: MDA-MB-231 breast
MDA-MB-435 = tested on: MDA-MB-435
MDA-N = tested on: MDA-N
MOLT-4 leukemia = tested on: MOLT-4 leukemia
NCI-H226 lung = tested on: NCI-H226 lung
NCI-H23 lung = tested on: NCI-H23 lung
NCI-H460 lung = tested on: NCI-H460 lung
NCI-H522 lung = tested on: NCI-H522 lung
NCI/ADR-RES ovarian = tested on: NCI/ADR-RES ovarian
OVCAR-5 ovarian = tested on: OVCAR-5 ovarian
PC-3 prostate = tested on: PC-3 prostate
RPMI-8226 leukemia = tested on: RPMI-8226 leukemia
RXF 393 renal = tested on: RXF 393 renal
SF-268 CNS = tested on: SF-268 CNS
SF-295 CNS = tested on: SF-295 CNS
SF-539 CNS = tested on: SF-539 CNS
SK-MEL-28 melanoma = tested on: SK-MEL-28 melanoma
SK-MEL-5 melanoma = tested on: SK-MEL-5 melanoma
SK-OV-3 ovarian = tested on: SK-OV-3 ovarian
SNB-19 CNS = tested on: SNB-19 CNS
SNB-75 CNS = tested on: SNB-75 CNS
SW-620 colon = tested on: SW-620 colon
T-47D breast = tested on: T-47D breast
TK-10 renal = tested on: TK-10 renal
U251 CNS = tested on: U251 CNS
UACC-257 melanoma = tested on: UACC-257 melanoma
UACC-62 melanoma = tested on: UACC-62 melanoma
UO-31 renal = tested on: UO-31 renal
HOP-62 NSCLC = tested on: HOP-62 NSCLC
HOP-92 NSCLC = tested on: HOP-92 NSCLC
MCF7 breast = tested on: MCF7 breast
OVCAR-3 ovarian = tested on: OVCAR-3 ovarian
OVCAR-4 ovarian = tested on: OVCAR-4 ovarian
OVCAR-8 ovarian = tested on: OVCAR-8 ovarian
SN12C renal = tested on: SN12C renal

SMILES: Nc1nn2c(C(Br)Br)cc(C(Br)Br)nc2c1[N+](=O)[O-]
- TGI (786-0 renal): 1.08 µM
- TGI (A498 renal): 4.72 µM
- TGI (A549 NSCLC): 20.1 µM
- TGI (ACHN renal): 2.1 µM
- TGI (BT-549 breast): 2.09 µM
- TGI (CAKI-1 renal): 0.954 µM
- TGI (CCRF-CEM leukemia): 0.51 µM
- TGI (COLO 205 colon): 1.94 µM
- TGI (DU-145 prostate): 3.46 µM
- TGI (EKVX NSCLC): 6.45 µM
- TGI (HCC-2998 colon): 4.52 µM
- TGI (HCT-116 colon): 2.23 µM
- TGI (HCT-15 colon): 2.34 µM
- TGI (HL-60(TB) leukemia): 0.431 µM
- TGI (HS 578T breast): 6.28 µM
- TGI (HT29 colon): 3.28 µM
- TGI (IGROV1 ovarian): 3.38 µM
- TGI (K-562 leukemia): 0.857 µM
- TGI (KM12 colon): 2.83 µM
- TGI (LOX IMVI melanoma): 0.799 µM
- TGI (M14 melanoma): 1.81 µM
- TGI (MALME-3M melanoma): 2.14 µM
- TGI (MDA-MB-231 breast): 2.95 µM
- TGI (MDA-MB-435): 1.76 µM
- TGI (MDA-N): 2.26 µM
- TGI (MOLT-4 leukemia): 1.21 µM
- TGI (NCI-H226 lung): 5.5 µM
- TGI (NCI-H23 lung): 4.61 µM
- TGI (NCI-H460 lung): 7.5 µM
- TGI (NCI-H522 lung): 0.248 µM
- TGI (NCI/ADR-RES ovarian): > 34 µM
- TGI (OVCAR-5 ovarian): 3.12 µM
- TGI (PC-3 prostate): 2.73 µM
- TGI (RPMI-8226 leukemia): 1.72 µM
- TGI (RXF 393 renal): 4.35 µM
- TGI (SF-268 CNS): 4.8 µM
- TGI (SF-295 CNS): 4.46 µM
- TGI (SF-539 CNS): 1.16 µM
- TGI (SK-MEL-28 melanoma): 2.88 µM
- TGI (SK-MEL-5 melanoma): 3.06 µM
- TGI (SK-OV-3 ovarian): 12 µM
- TGI (SNB-19 CNS): 3.05 µM
- TGI (SNB-75 CNS): 2.29 µM
- TGI (SW-620 colon): 0.77 µM
- TGI (T-47D breast): 5.27 µM
- TGI (TK-10 renal): 2.28 µM
- TGI (U251 CNS): 2.54 µM
- TGI (UACC-257 melanoma): 3.11 µM
- TGI (UACC-62 melanoma): 4.06 µM
- TGI (UO-31 renal): 2.5 µM

SMILES: COC(=O)c1c(C)cccc1/C=C1/Cc2c(C)cccc2C1=O
- TGI (786-0 renal): > 100 µM
- TGI (A498 renal): > 100 µM
- TGI (A549 NSCLC): > 100 µM
- TGI (ACHN renal): > 100 µM
- TGI (BT-549 breast): > 100 µM
- TGI (CAKI-1 renal): > 100 µM
- TGI (DU-145 prostate): > 100 µM
- TGI (EKVX NSCLC): > 100 µM
- TGI (HCC-2998 colon): > 100 µM
- TGI (HCT-116 colon): > 100 µM
- TGI (HCT-15 colon): > 100 µM
- TGI (HL-60(TB) leukemia): > 100 µM
- TGI (HOP-62 NSCLC): > 100 µM
- TGI (HOP-92 NSCLC): > 100 µM
- TGI (HS 578T breast): > 100 µM
- TGI (HT29 colon): > 100 µM
- TGI (IGROV1 ovarian): > 100 µM
- TGI (KM12 colon): > 100 µM
- TGI (LOX IMVI melanoma): > 100 µM
- TGI (MALME-3M melanoma): > 100 µM
- TGI (MCF7 breast): > 100 µM
- TGI (MDA-MB-231 breast): > 100 µM
- TGI (MDA-MB-435): > 100 µM
- TGI (MDA-N): > 100 µM
- TGI (MOLT-4 leukemia): > 100 µM
- TGI (NCI-H226 lung): > 100 µM
- TGI (NCI-H23 lung): > 100 µM
- TGI (NCI-H460 lung): > 100 µM
- TGI (NCI-H522 lung): > 100 µM
- TGI (NCI/ADR-RES ovarian): > 100 µM
- TGI (OVCAR-3 ovarian): > 100 µM
- TGI (OVCAR-4 ovarian): > 100 µM
- TGI (OVCAR-5 ovarian): > 100 µM
- TGI (OVCAR-8 ovarian): > 100 µM
- TGI (PC-3 prostate): > 100 µM
- TGI (RPMI-8226 leukemia): 8.51 µM
- TGI (RXF 393 renal): > 100 µM
- TGI (SF-268 CNS): > 100 µM
- TGI (SF-295 CNS): > 100 µM
- TGI (SF-539 CNS): > 100 µM
- TGI (SK-MEL-28 melanoma): > 100 µM
- TGI (SK-MEL-5 melanoma): > 100 µM
- TGI (SK-OV-3 ovarian): > 100 µM
- TGI (SN12C renal): > 100 µM
- TGI (SNB-75 CNS): > 100 µM
- TGI (SW-620 colon): > 100 µM
- TGI (T-47D breast): > 100 µM
- TGI (TK-10 renal): > 100 µM
- TGI (U251 CNS): > 100 µM
- TGI (UACC-257 melanoma): > 100 µM
- TGI (UACC-62 melanoma): > 100 µM
- TGI (UO-31 renal): > 100 µM
